Values quoted from earlier work, collected in patent US10016363B2, “Pre-spray emulsions and powders containing non-polar compounds” (VIRUN, INC., priority 2014, dated 2018).

settings: reported HLB value of surfactant

| Substance | H.L.B. |
| --- | --- |
| sucrose dipalmitate | 7.4 |
| sucrose distearate | 3 |
| sucrose monopalmitate | > 10 |
